Measurements from US9708251B2, “Unsaturated fatty alcohol alkoxylates from natural oil metathesis” (Stepan Company, priority 2012, dated 2017).

Key:
Type in all cases: physicochemical
[1] = Agrichemical solvent analysis: active solubility; details: room temperature
Experimental: Solvency strength of potential agrichemical solvents is evaluated by identifying the solubility level of three standard pesticides in the solvent by weight percent: 2,4-D acid, imidacloprid, and tebuconazole. […] The active material is also accurately weighed before addition. Initial amounts of active material are approximately: 2,4-D: 0.3 g; imidacloprid: 0.02 g; tebuconazole: 0.3 g. Solvent and pesticide active are combined, allowed to mix for 1 h at room temperature, and then inspected for the presence of undissolved active material. Additional active material is added in appropriately small increments until it no longer dissolves completely. This mixture is then stirred for 24 h at room temperature, and if the active has completely dissolved, additional active ingredient is added and the mixture is stirred another 24 h at room temperature. The percent solubility is recorded, and performance is compared with that of a standard agricultural solvent.

[2] = Emulsion stability testing of nonionic emulsifiers, Hallcomid solvent series; parameters: key to 24 h separation, appearance / 1 h separation, appearance / 1 h separation, amount: C = creamy; CO = creamy oil; O = oil; GC = gritty cream; NS = no separation; OC = oily cream; key to Spon. (spontaneity): G = good; F = fair; P = poor
Experimental: (§1) Nonionic samples contain a low amount of water (<1%) and are prepared as emulsifiable concentrates with three pesticides using two different solvent systems. In the aromatic solvent series, the nonionic sample replaces Toximul® 8240 (castor oil ethoxylate, 36 POE, Stepan), and in the Hallcomid™ (N,N-dimethylcaprylamide/N,N-dimethylcapramide, Stepan) solvent series, the nonionic sample replaces Ninex® MT-630F.
(§2) Hallcomid Solvent Series.
(§3) Sample preparation: The surfactants are combined and stirred until homogeneous, with the nonionic sample melted if needed prior to combination. Controls 1-3 are made by using Ninex MT-630F in the amounts indicated instead of the nonionic sample.
(§4) Emulsion Stability Testing
(§5) A Mohr pipette is used to feed pesticide/surfactant concentrates to each cylinder.

[3] = as above; parameters: key: C = creamy; CO = creamy oil; O = oil; GC = gritty cream; NS = no separation; OC = oily cream; details: Bifenthrin 240 g/L in Hallcomid M-8-10, 34 ppm water
Experimental: as §1, §2, §3, §4, §5

[4] = Surfactant phase behavior study (cross-polarized microscopy); details: room temperature
Experimental: Phase behavior is observed using an Olympus BH-2 cross-polarized microscope at 100-400× and room temperature (20° C. to 22° C.). The inventive monounsaturated alcohol ethoxylates are compared with their saturated analogs.
Samples are prepared by diluting the most concentrated product gradually with deionized water. When the surfactant concentration approaches a phase transition, the concentration is varied at 2-4% intervals to estimate the phase boundary. The actives level reported in Table 4 for each phase boundary is within ±5% of the true boundary.
Samples are loaded between a microscope slide and cover glass and are allowed to equilibrate before observation. Microscopic texture is analyzed and used to determine the phase. For some samples, an AR 2000 rheometer (TA Instruments) is used to measure viscosity at 25° C. to further verify phase behavior.

[5] = Solubility evaluation: enhanced oil recovery (EOR); details: for Comments (appearance) / Soluble?: 1 wt. % sample, 1% sodium chloride brine
Experimental: Samples are prepared in a 10% stock solution and evaluated at 1 wt. % with a brine concentration of 1% sodium chloride. Replicate experiments are performed at each temperature with each sample.

[6] = Emulsion stability testing of nonionic emulsifiers, aromatic solvent series; parameters: key to 24 h separation, appearance / 1 h separation, appearance / 1 h separation, amount: C = creamy; CO = creamy oil; O = oil; GC = gritty cream; NS = no separation; OC = oily cream; key to Spon. (spontaneity): G = good; F = fair; P = poor
Experimental: as §1
Sample preparation: Ninate® 60E (calcium alkylbenzenesulfonate, Stepan) and the test sample are stirred until homogeneous. […] Controls 1-3 are made by using Toximul 8240 in the amounts indicated instead of the nonionic sample.
Formulations: • 1. Bifenthrin, 240 g/L (2.99 g), Aromatic 100 (ExxonMobil, 8.05 g), Ninate 60E (0.38 g), and nonionic sample or Toximul 8240 (0.58 g). • 2. 2,4-D ester, 480 g/L (8.90 g), Exxsol® D-110 (ExxonMobil, 2.50 g), Ninate 60E (0.36 g), and nonionic sample or Toximul 8240 (0.24 g). • 3. Tebuconazole, 360 g/L (4.45 g), N-methyl-2-pyrrolidone (6.35 g), Ninate 60E (0.48 g), nonionic sample or Toximul 8240 (0.72 g).
as §4, §5

[7] = Fabric cleaning: compaction (surfactant blends)
Experimental: The sample is formulated into surfactant blends having high actives content. Two experimental derivatives, A12-13 and A12-21, are evaluated.
In a first experiment, a three-component surfactant blend is prepared. This blend comprises the experimental sample (30 wt. %), a linear alkylbenzene sulfonate (15 wt. %), and an alkyl ether sulfate (15 wt. %). The appearance and viscosity of the blend are compared with those of similar three-component blends in which a standard alcohol ethoxylate replaces the experimental sample.
In a second experiment, a two-component surfactant blend is prepared in which the experimental sample and a linear alkylbenzene sulfonate are combined at a 1:1 actives ratio, beginning with a high actives blend having a cloudy appearance. Water is gradually added and mixed with the surfactant blend at room temperature. […]

[8] = 2,4-D diester 480 g/L in Hallcomid M-8-10, 34 ppm water
[9] = 2,4-D diester 480 g/L in Hallcomid M-8-10, 1000 ppm water
[10] = Bifenthrin 240 g/L in Hallcomid M-8-10, 34 ppm water
[11] = Bifenthrin 240 g/L in Hallcomid M-8-10, 1000 ppm water
[12] = Tebuconazole 360 g/L in Hallcomid M-8-10, 34 ppm water
[13] = Tebuconazole 360 g/L in Hallcomid M-8-10, 1000 ppm water
[14] = 2,4-D ester 480 g/L in Exxsol D-110, 34 ppm water
[15] = 2,4-D ester 480 g/L in Exxsol D-110, 1000 ppm water
[16] = Bifenthrin 240 g/L in Aromatic 100, 34 ppm water
[17] = Bifenthrin 240 g/L in Aromatic 100, 1000 ppm water
[18] = Tebuconazole 360 g/L in N-methyl-2-pyrrolidone, 34 ppm water
[19] = Tebuconazole 360 g/L in N-methyl-2-pyrrolidone, 1000 ppm water
[20] = three-component blend: sample 30 wt. %, linear alkylbenzene sulfonate 15 wt. %, alkyl ether sulfate 15 wt. %

C=CCCCCCCCCOCCOCCOCCO [A10-7]
solubility of 2,4-D Acid in the solvent [1]: 29.5 weight percent | solubility of Imidacloprid in the solvent [1]: 2.9 weight percent | solubility of Tebuconazole in the solvent [1]: 13.5 weight percent | 1 h separation, amount [2, 8]: 5.6 mL | 1 h separation, appearance [2, 8]: C | 24 h separation, amount [2, 8]: 10 mL | 24 h separation, appearance [2, 8]: C | Spon. (spontaneity) [2, 8]: F | 1 h separation, amount [2, 9]: 6 mL | 1 h separation, appearance [2, 9]: C | 24 h separation, amount [2, 9]: 7.5 mL | 24 h separation, appearance [2, 9]: C | Spon. (spontaneity) [2, 9]: F | 1 h separation, amount [2, 10]: NS | Spon. (spontaneity) [2, 10]: F | 1 h separation, amount [2, 11]: 10 mL | 1 h separation, appearance [2, 11]: CO | 24 h separation, amount [2, 11]: 3 O, 3 CO | Spon. (spontaneity) [2, 11]: P | 1 h separation, amount [2, 12]: 2.5 mL | 1 h separation, appearance [2, 12]: C | 24 h separation, amount [2, 12]: 5 mL | 24 h separation, appearance [2, 12]: C | Spon. (spontaneity) [2, 12]: F | 1 h separation, amount [2, 13]: 3 mL | 1 h separation, appearance [2, 13]: C | 24 h separation, amount [2, 13]: 5 mL | 24 h separation, appearance [2, 13]: C | Spon. (spontaneity) [2, 13]: F | 24 h separation, amount [3]: NS | combined isotropic phases (clear and opaque), share of the total [4]: about 50% | Isotropic Clear phase region ([4]; in deionized water): 70-100 % Actives Level | Isotropic Opaque phase region ([4]; in deionized water): 0-20 % Actives Level | Lamellar phase region ([4]; in deionized water): 20-70 % Actives Level | Comments (appearance) ([5]; 20.7 °C): white, opaque | Soluble? ([5]; 20.7 °C): no | Comments (appearance) ([5]; 51.5 °C): white, opaque | Soluble? ([5]; 51.5 °C): no | Comments (appearance) ([5]; 56.1 °C): white, hazy | Soluble? ([5]; 56.1 °C): no | Overall performance (EOR solubility) ([5]; versus control fatty alcohol ethoxylate): Overall performance of A10-7: Equal to control | 1 h separation, amount [6, 14]: 4 mL | 1 h separation, appearance [6, 14]: CO | 24 h separation, amount [6, 14]: 1 O, 4.5 CO | Spon. (spontaneity) [6, 14]: P | 1 h separation, amount [6, 15]: 4 mL | 1 h separation, appearance [6, 15]: O | 24 h separation, amount [6, 15]: 4 mL | 24 h separation, appearance [6, 15]: O | Spon. (spontaneity) [6, 15]: P | 1 h separation, amount [6, 16]: 7 mL | 1 h separation, appearance [6, 16]: CO | 24 h separation, amount [6, 16]: 6.5 mL | 24 h separation, appearance [6, 16]: CO | Spon. (spontaneity) [6, 16]: P | 1 h separation, amount [6, 17]: 6 mL | 1 h separation, appearance [6, 17]: O | 24 h separation, amount [6, 17]: 5 mL | 24 h separation, appearance [6, 17]: O | Spon. (spontaneity) [6, 17]: P | 1 h separation, amount [6, 18]: 2 mL | 1 h separation, appearance [6, 18]: GC | 24 h separation, amount [6, 18]: 3 mL | 24 h separation, appearance [6, 18]: GC | Spon. (spontaneity) [6, 18]: P | 1 h separation, amount [6, 19]: 2.5 mL | 1 h separation, appearance [6, 19]: GC | 24 h separation, amount [6, 19]: 3 mL | 24 h separation, appearance [6, 19]: GC | Spon. (spontaneity) [6, 19]: P

CCC=CCCCCCCCCOCCOCCOCCOCCOCCOCCOCCOCCOCCO (mixture of isomers) [A12-21]
Appearance, 25° C. [7, 20]: cloudy, flowable gel | Viscosity [7, 20]: 5600 cPs | % Actives at which blend is clear and homogeneous at 25° C. ([7]; two-component blend with linear alkylbenzene sulfonate, 1:1 actives ratio): 51 % Actives

C=CCCCCCCCCOCCOCCOCCOCCOCCO [A10-10]
solubility of 2,4-D Acid in the solvent [1]: 29.8 weight percent | solubility of Imidacloprid in the solvent [1]: 2.8 weight percent | solubility of Tebuconazole in the solvent [1]: 13.0 weight percent | 1 h separation, amount [2, 8]: 5 mL | 1 h separation, appearance [2, 8]: C | 24 h separation, amount [2, 8]: 9.9 mL | 24 h separation, appearance [2, 8]: C | Spon. (spontaneity) [2, 8]: F | 1 h separation, amount [2, 9]: 6 mL | 1 h separation, appearance [2, 9]: C | 24 h separation, amount [2, 9]: 8 mL | 24 h separation, appearance [2, 9]: C | Spon. (spontaneity) [2, 9]: F | 1 h separation, amount [2, 10]: NS | Spon. (spontaneity) [2, 10]: G | 1 h separation, amount [2, 11]: 6.5 mL | 1 h separation, appearance [2, 11]: CO | 24 h separation, amount [2, 11]: 4 O, 2 CO | Spon. (spontaneity) [2, 11]: F | 1 h separation, amount [2, 12]: 2 mL | 1 h separation, appearance [2, 12]: C | 24 h separation, amount [2, 12]: 5 mL | 24 h separation, appearance [2, 12]: C | Spon. (spontaneity) [2, 12]: F | 1 h separation, amount [2, 13]: 3.5 mL | 1 h separation, appearance [2, 13]: C | 24 h separation, amount [2, 13]: 2 CO, 5 C | Spon. (spontaneity) [2, 13]: F | 24 h separation, amount [3]: NS | Isotropic Clear phase region ([4]; in deionized water): 0-100 % Actives Level | 1 h separation, amount [6, 14]: 1.5 mL | 1 h separation, appearance [6, 14]: CO | 24 h separation, amount [6, 14]: 4.1 mL | 24 h separation, appearance [6, 14]: C | Spon. (spontaneity) [6, 14]: F | 1 h separation, amount [6, 15]: 4 mL | 1 h separation, appearance [6, 15]: CO | 24 h separation, amount [6, 15]: 1 O, 4 CO | Spon. (spontaneity) [6, 15]: P | 1 h separation, amount [6, 16]: NS | 24 h separation, amount [6, 16]: 3.5 mL | 24 h separation, appearance [6, 16]: C | Spon. (spontaneity) [6, 16]: F | 1 h separation, amount [6, 17]: 3 O, 5 CO | 24 h separation, amount [6, 17]: 4.5 O, 1 CO | Spon. (spontaneity) [6, 17]: F | 1 h separation, amount [6, 18]: 2 mL | 1 h separation, appearance [6, 18]: CO | 24 h separation, amount [6, 18]: 2.5 mL | 24 h separation, appearance [6, 18]: CO | Spon. (spontaneity) [6, 18]: P | 1 h separation, amount [6, 19]: 2.5 mL | 1 h separation, appearance [6, 19]: CO | 24 h separation, amount [6, 19]: 3 mL | 24 h separation, appearance [6, 19]: CO | Spon. (spontaneity) [6, 19]: P
